Structures can show the parent of a compound that is named as a salt. Where two headings read alike, the source gives them in different places.
Legend:
[1] = biological target: T1, sigma receptors (Cavia porcellus, UniProt Q60492); test: in vitro affinity for sigma receptors, competition with (+)[3H]SKF10,047; assay type: binding, guinea-pig (cerebral membranes)
T1 construct: sigma receptors of the cerebral membranes of the guinea-pig used in this study; from tissue; host or cells: guinea-pig cerebral membranes
T1 sequence (Q60492 whole entry): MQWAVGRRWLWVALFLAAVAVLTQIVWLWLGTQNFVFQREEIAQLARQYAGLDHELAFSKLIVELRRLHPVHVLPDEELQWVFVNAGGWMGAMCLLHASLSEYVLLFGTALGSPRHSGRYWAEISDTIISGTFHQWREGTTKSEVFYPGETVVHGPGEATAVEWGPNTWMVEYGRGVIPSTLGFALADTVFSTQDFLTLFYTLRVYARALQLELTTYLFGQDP
Method: The test is carried out by incubating solutions of suitable concentrations of the products with standard samples of membranes and determining, after filtration, the residual radioactivity of the solution.

[2] = protection from convulsions induced by picrotoxin in mice; assay type: in vivo, "Swiss" male mice; settings: for i.p.: % prot. (inhibition of convulsions induced by picrotoxin): 50 mg/kg i.p., picrotoxin 24 mg/kg i.p. 30 minutes later; for i.p.: % prot. (inhibition of convulsions induced by picrotoxin) / p.o.: % prot. (inhibition of convulsions induced by picrotoxin): * p<0.05, ** p<0.01, *** p<0.001; for p.o.: % prot. (inhibition of convulsions induced by picrotoxin): 100 mg/kg p.o., picrotoxin 24 mg/kg i.p. 60 minutes later; for ED50: Mus musculus
Method: b) The psychotropic properties of the compounds were determined by the protection from convulsions induced by picrotoxin in mice, which was realized in accordance with a method derived from that of Krall and coll., "Epilepsia", 1978, 19, p. 409-428.
The administration of picrotoxin to animals causes a convulsive attack characterized by a myoclonic extension syndrome followed by extension of the limbs leading to death of the animals. Certain substances, in particular those which act on the GABA/benzodiazepine/Cl-ionophor complex, provide protection of the animals from these convulsive attacks.
In practice, the study is carried out on groups of 10 "Swiss" male mice weighing about 20 g, to which the product under investigation is administered in aqueous solution either intraperitoneally (i.p.) or orally (p.o.).
An intraperitoneal injection of a solution of picrotoxin in an amount of 24 mg/kg in a volume of 0.2 ml per animal is then performed, either 30 minutes after intraperitoneal administration of the product or 60 minutes after oral administration of the product, the dose of the product injected in this way causing a clonic attack which leads to death of the untreated animals. Under the conditions of the test, suppression of the tonic extension phase is found in the animals treated.
The results are expressed:
either as the percentage of animals protected from this phase under the action of 50 mg/kg compound under investigation administered i.p. or 100 mg/kg p.o.,
or in the ED50 for each of these groups, which is the effective dose of the compound under investigation expressed in mg/kg which protects 50% of animals from this extension phase, the significance value of the results generally being indicated in the following manner: […]

[3] = biological target: mu receptors; test: in vitro affinity for mu receptors; assay type: binding; settings: Table 3; read-out: mu rec. IC50
Method: (§1) The "in vitro" study of the affinity of the compounds according to the invention for the three opium receptors is carried out in accordance with the technique described by F. Roman and coll. in J. Pharm. Pharmacol. 1987, 39, p. 404-407 and the study of the affinity for PCP receptors is carried out in accordance with the technique described by Vignon J. and coll. in "Brain Res." 1983; 280, p. 194-7 and 1986; 378, p. 133-41.
(§2) The results shown in table 3 are, for each receptor studied, expressed in IC50, which are the nanomolar concentrations of the dissolved products which are capable of inhibiting 50% of the bonds between the specific radioactive ligand to the receptor under consideration.

[4] = biological target: T2, delta receptors (Cavia porcellus, UniProt A0A286XTF2); test: in vitro affinity for delta receptors; assay type: binding; settings: Table 3; read-out: delta rec. IC50
T2 construct: from tissue
T2 sequence (A0A286XTF2 1-366): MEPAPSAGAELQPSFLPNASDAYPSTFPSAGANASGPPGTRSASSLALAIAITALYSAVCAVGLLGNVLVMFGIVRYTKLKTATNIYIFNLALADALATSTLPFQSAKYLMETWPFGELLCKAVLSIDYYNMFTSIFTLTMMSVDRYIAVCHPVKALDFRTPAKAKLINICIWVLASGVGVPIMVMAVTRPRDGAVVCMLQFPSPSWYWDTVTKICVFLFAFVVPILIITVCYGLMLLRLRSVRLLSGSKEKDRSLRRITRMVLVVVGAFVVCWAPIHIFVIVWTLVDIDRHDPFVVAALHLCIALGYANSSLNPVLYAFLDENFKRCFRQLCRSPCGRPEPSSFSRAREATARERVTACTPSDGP
Method: as §1, §2

[5] = biological target: T3, kappa receptors (Cavia porcellus, UniProt P41144); test: in vitro affinity for kappa receptors; assay type: binding; settings: Table 3; read-out: kappa rec. IC50
T3 construct: from tissue
T3 sequence (P41144 whole entry): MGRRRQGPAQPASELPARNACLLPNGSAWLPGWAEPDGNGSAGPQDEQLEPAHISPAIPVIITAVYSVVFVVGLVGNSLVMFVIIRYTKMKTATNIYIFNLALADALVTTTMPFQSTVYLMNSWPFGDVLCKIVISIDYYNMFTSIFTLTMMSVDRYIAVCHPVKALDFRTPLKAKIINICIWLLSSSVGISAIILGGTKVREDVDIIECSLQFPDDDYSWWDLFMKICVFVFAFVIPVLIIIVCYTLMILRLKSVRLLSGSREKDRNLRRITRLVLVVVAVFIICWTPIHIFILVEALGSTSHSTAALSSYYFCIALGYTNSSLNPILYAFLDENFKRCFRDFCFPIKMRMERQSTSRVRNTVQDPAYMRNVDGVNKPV
Method: as §1, §2

[6] = inhibition of gastro-duodenal ulcers caused by cysteamine; assay type: in vivo, Wistar female rats; settings: Rattus norvegicus; cysteamine hydrochloride 400 mg/kg s.c.; products orally or subcutaneously; read-out: ED50 - ulceration scores
Method: This activity is set in relation to the capacity of the products to cause an increase in the alkaline secretion in the duodenum in anaesthetized animals.
In this test, groups of 6 Wistar female rats with an average weight of 200 g receive a subcutaneous injection of cysteamine hydrochloride in an amount of 400 mg/kg. The products under investigation are administered orally or subcutaneously 1 h or, respectively, 30 minutes before the ulcerogenic agent.
Ten hours thereafter, the rats are sacrificed by elongation and their stomach and duodenum are removed, rinsed with physiological solution and mounted on a card. The presence of ulcers in the antro-pyloric-duodenal zone is examined and their area, expressed in mm^2, is evaluated by multiplying the two main perpendicular axis of the lesion. Statistical analysis of the results is performed with the aid of the Student test for the ulcerated areas in comparison with a control group receiving only excipient.
The results presented in table 5 are expressed in ED50 of ulceration scores, which are the effective doses, expressed in mg/kg product, which cause inhibition of 50% of the ulcerations caused by cysteamine.

[7] = antagonism of amnesia caused by scopolamine, passive avoidance test; assay type: in vivo, mice
Method: The animal is introduced into the illuminated compartment, and when it moves to the dark compartment it receives an electric current (0.35 mA) through the base until it returns to the illuminated compartment, from where it is then removed.
After 24 hours, the operation is repeated. The mouse is replaced in the apparatus and it avoids entering into the dark compartment. The time which elapses before passage into this compartment is recorded; under the conditions of the experiment, the efficacy of the compounds under investigation in antagonizing the amnesic effect of scopolamine, which is administered intraperitoneally in an amount of 1 mg/kg 30 minutes before the animal is first introduced into the apparatus, can be evaluated.
In control mice which have received only scopolamine, the time elapsed before passage after 24 hours is remarkably lower than that observed in the untreated animals.
The study of the products according to the invention by this method is performed on groups of 18 mice and the products are administered orally on the first day in an amount of 0.25 mg/kg 30 minutes before administration of scopolamine i.p.

[8] = alkaline duodenal secretion in anaesthetized rats; assay type: in vivo, male rats; settings: 1 mg/kg intravenously
Method: The activity of the products on alkaline duodenal secretion in rats is studied in accordance with a technique described by FLEMSTROM and coll. Gastroenterology, 1983, 84, p. 787-794.
The test comprises determination every 10 minutes, for 3 hours and in situ, of the alkaline secretion of a duodenal segment 12 mm in length, with no Brunner glands and situated 2 cm from the pylorus.
The study is performed on male rats of about 350 g previously anaesthetized, in which the duodenal segment chosen in cannulated by 2 glass tubes in accordance with the technique described by the author, and in which a luminal perfusate consisting of 5 ml isotonic NaCl solution is maintained at 37° C.
The variations in the intraluminal alkaline secretion are measured by pHmetry every 10 minutes by means of an automated system maintaining a constant pH of 7.4 by in situ addition of a 0.04N solution of hydrochloric acid. Fifty minutes after the start of the experiment, the products under investigation are administered intravenously or intraarterially in an amount of 1 mg/kg and the volume of hydrochloric acid introduced, which is a reflection of the in situ increase in alkaline secretion, is measured every 10 minutes for 3 hours with respect to the start of the experiment, that is to say for 130 minutes after injection of the product under investigation.
The following are determined for each product:
a) The maximum increase in secretion in micro-eq/cm/h under the action of the drug, taking into account the basal secretion of the same animals observed for 50 minutes before administration of the product.
The results are shown in table 6, which follows, for the products (I) according to the invention administered intravenously in an amount of 1 mg/kg.

[9] = biological target: PCP receptors; test: in vitro affinity for phencyclidine (PCP) receptors; assay type: binding; settings: Table 3; read-out: PCP rec. IC50
Method: as §1, §2

[10] = Table 2, (+)[3H]SKF10,047, guinea-pig cerebral membranes, read-out: IC50 (bonding affinity to sigma receptors)
[11] = IC50 (bonding affinity to sigma receptors), Table 2, (+)[3H]SKF10,047, guinea-pig cerebral membranes
[12] = 0.25 mg/kg orally, scopolamine 1 mg/kg i.p. 30 minutes later, latency after 24 hours, hydrochloride
[13] = po, 1 h, read-out: p.o.: ED50 (inhibition of convulsions induced by picrotoxin)
[14] = Table 3, read-out: sigma rec. IC50

CCC(CC=Cc1ccccc1)(NC[C@@H]1C[C@H]1c1ccccc1)c1ccccc1 (relative stereo) [Example 3, α-Cinnamyl-α-ethyl-N-(trans-2-phenyl-cyclopropyl)methyl-benzylamine]
IC50 [1, 10]: 0.368 µM

CCC(CC=Cc1ccccc1)(c1ccccc1)N(C)C[C@@H]1C[C@H]1c1ccccc1 (relative stereo) [Example 6, α-Cinnamyl-α-ethyl-N-methyl-N-(trans-2-phenyl-cyclopropyl)-methyl-benzylamine]
IC50 [1, 10]: 0.246 µM

CCC(C[C@@H]1C[C@H]1c1ccccc1)(c1ccco1)N(C)CC1CC1 (relative stereo) [Example 23, trans-N-Cyclopropylmethyl-α-ethyl-N-methyl-α-(2-phenyl-1-cyclopropylmethyl)-2-furfurylamine]
i.p.: % prot. (inhibition of convulsions induced by picrotoxin) [2]: 50%

CCC(C[C@@H]1C[C@H]1c1ccccc1)(c1cccs1)N(C)CC1CC1 (relative stereo) [Example 24, trans-N-Cyclopropylmethyl-α-ethyl-N-methyl-α-(2-phenyl-1-cyclopropylmethyl)-2-thiophenemethylamine]
i.p.: % prot. (inhibition of convulsions induced by picrotoxin) [2]: 50%
p.o.: % prot. (inhibition of convulsions induced by picrotoxin) [2]: 50%
IC50 [1, 10]: 0.029 µM
IC50 [3]: 3.02 µM
IC50 [4]: 57 µM
IC50 [5]: 9.1 µM
ED50 [6]: 45.7 mg/kg

CCC(C[C@@H]1C[C@H]1c1ccccc1)(c1ccsc1)N(C)CC1CC1 (relative stereo) [Example 25, trans-N-Cyclopropylmethyl-α-ethyl-N-methyl-α-(2-phenyl-1-cyclopropylmethyl)-3-thiophenemethylamine]
i.p.: % prot. (inhibition of convulsions induced by picrotoxin) [2]: 50%
p.o.: % prot. (inhibition of convulsions induced by picrotoxin) [2]: 50%

CCC(CC=Cc1ccccc1)(c1ccccc1)N(C)CC1CC1 (single isomer, unassigned) [Example 10, (+)-α-Cinnamyl-N-cyclopropyl-methyl-α-ethyl-N-methyl-benzylamine hydrochloride]
i.p.: % prot. (inhibition of convulsions induced by picrotoxin) ([2]; hydrochloride): 50%
IC50 [1, 11]: 0.013 µM
IC50 ([1]; sigma rec. IC50, Table 3): 0.013 µM
IC50 [4]: 67.9 µM
IC50 [5]: 23.8 µM
% antagonism of the amnesia [7, 12]: 76%
ED50 [6]: 5 mg/kg
Increase AUC 1 2 h ([8]; AUC of alkaline flow rate 1 h to 2 h compared with control animals): 66.2
Increase in secretion ([8]; maximum increase, anaesthetized rats): 7.5 micro-eq/cm/h

CCC(CC=Cc1ccccc1)(c1ccccc1)N(C)CC1CC1 (single isomer, unassigned) [Example 11, (-)-α-Cinnamyl-N-cyclopropyl-methyl-α-ethyl-N-methyl-benzylamine hydrochloride]
i.p.: % prot. (inhibition of convulsions induced by picrotoxin) ([2]; hydrochloride): 70%
IC50 [1, 11]: 0.102 µM
IC50 ([1]; sigma rec. IC50, Table 3): 0.21 µM
IC50 [4]: 41.6 µM
IC50 [5]: 5.14 µM
% antagonism of the amnesia [7, 12]: 38%

CCC(CC=Cc1ccccc1)(NCC1(C)CC1)c1ccccc1 (stereo not drawn) [Example 2, α-Cinnamyl-α-ethyl-N-(1-methylcyclopropyl)-methyl-benzylamine]
p.o.: % prot. (inhibition of convulsions induced by picrotoxin) [2]: 90%

CCC(CC=Cc1ccccc1)(c1ccccc1)N(C)CCC1CC1 (stereo not drawn) [Example 8, α-Cinnamyl-N-cyclopropylethyl-α-ethyl-N-methyl-benzylamine]
ED50 [2, 13]: 53.6 mg/kg
IC50 [1, 10]: 0.021 µM
IC50 [3]: 2.04 µM
IC50 [4]: 7.55 µM
IC50 [5]: 1.52 µM
IC50 [9]: 25.9 µM

CN(CC1CC1)C(C)(CC=Cc1ccccc1)c1ccccc1 (stereo not drawn) [Example 13, α-Cinnamyl-N-cyclopropylmethyl-N-α-dimethyl-benzylamine]
ED50 ([2]; ip, 0.5 h, read-out: i.p.: ED50 (inhibition of convulsions induced by picrotoxin)): 32.5 mg/kg
ED50 [2, 13]: 64.4 mg/kg
IC50 [1, 14]: 0.337 µM
IC50 [3]: 10.2 µM
IC50 [4]: 9.37 µM
IC50 [5]: 8.68 µM
IC50 [9]: 10.5 µM

CC(C)C(CC=Cc1ccccc1)(c1ccccc1)N(C)CC1CC1 (stereo not drawn) [Example 14, α-Cinnamyl-N-cyclopropylmethyl-α-isopropyl-N-methyl-benzylamine]
IC50 [1, 14]: 0.669 µM
IC50 [3]: 34.2 µM
IC50 [4]: > 100 µM
IC50 [5]: 76 µM
IC50 [9]: 14.2 µM

CCC(CC=Cc1ccc(Cl)c(Cl)c1)(c1ccc(Cl)cc1)N(C)CC1CC1 (stereo not drawn) [Example 16, α-(3',4'-Dichloro)cinnamyl-N-cyclopropyl-methyl-α-ethyl-N-methyl-p-chlorobenzylamine]
p.o.: % prot. (inhibition of convulsions induced by picrotoxin) [2]: 60%

CCC(CC=Cc1ccccc1)(c1ccco1)N(C)CC1CC1 (stereo not drawn) [Example 20, α-Cinnamyl-N-cyclopropylmethyl-α-ethyl-N-methyl-2-furfurylamine]
p.o.: % prot. (inhibition of convulsions induced by picrotoxin) [2]: 60%

NC(=O)CN1CCCC1=O [piracetam, reference compound]
% antagonism of the amnesia ([7]; 2048 mg/kg p.o.): 109%
% antagonism of the amnesia ([7]; 2048 mg/kg p.o., listed as piracetam): about 100%

From patent US5034419A, “N-cycloalkylalkylamines, process for their preparation, their use as medicament and their synthesis intermediates” (L'Oreal, priority 1988, dated 1991)
